Results from US5002969A, “Pharmaceutical compositions containing titanocene complexes and use of these complexes as cytostatic agents” (priority 1985, dated 1991).

Assays:
B16 Melanoma = assay: Activity against B16 Melanoma; assay type: in vivo, female B6 D2 F1 mice; details: day 10
Procedure: (§1) The B16 melanoma and colon 38 carcinoma used were obtained from the NCI Liasion Office, Institut Jules Bordet, Brussels, Belgium and, for propagation, were kept as solid, subcutaneously growing tumor lines on male C57BL/6J mice. For testing, the tumors were transplanted to female B6 D2 F1 mice. All animals were kept under standard conditions (22°-23° C., tap water and altromin food ad libitum, 12-h light-dark rhythm).
(§2) For tumor transplantation on day 0 of the testing experiments, solid tumors were removed from donor mice, minced with scissors and reduced to small particles. After suspension in twofold volumes of Hank's balanced salt solution, volumes of 0.3 ml were inoculated subcutaneously into the axillary region, resulting in the growth of solitary solid tumors.
(§3) The test compounds were administered either as a single injection on day 1 or as three injections on days 1, 3 and 5, or as five injections on days 1, 3, 5, 7 and 9. The different doses applied and the animal distribution are recorded in table 4. The substances, dissolved or suspended in a DMSO-saline mixture (1/9=v/v), were always injected intraperitoneally. The concentrations were selected in such a manner that each mouse received a total volume of 0.4 to 0.5 ml. Control animals only obtained one, three or five injections of the DMSO-saline mixture (0.5 ml/animal) without drug addition.
(§4) The number of deaths was recorded daily. Deaths occuring within 7 days (single injection), 11 days (three injections) or 15 days (five injections) after tumor transplantation were defined as deaths due to substance toxicity.
(§5) In the case of B16 melonoma, the tumors were removed and weighed on day 10 for the single and three injections or on day 15 for the five injections. Colon 38 carcinomas were always evaluated on day 15 of the experiment.

solid Sarcoma 180 = assay: Activity against solid Sarcoma 180; details: for T/C / Tumor Weight: day 9; for Tumor Weight: mean ± SD
Procedure: The sarcoma 180 used in the present study was obtained from the Deutsche Krebsforschungszentrum (Heidelberg, Germany). It was propagated as an intraperitoneally growing tumor line on female NMRI mice which were kept under standard conditions (altromin food and tap water ad libitum, 12-h dark-light rhythm).
Antitumor testing was performed against sarcoma 180 in fluid ascitic as well as in solid, subcutaneously growing form. For testing against ascitic or solid sarcoma 180, the ascitic tumor of donor mice was harvested, diluted 1:3 (v:v) with saline and injected either into the peritoneal cavity or, subcutaneously, into the axillary region of female NMRI mice. Each animal obtained about 10^7 tumor cells. The day of tumor transplantation was defined as day 0 of the experiment.
Before administration of the test compounds, samples corresponding to the applied doses were dissolved in DMSO, filled up with ninefold volumes of saline and applied to mice in volumes of 0.02 ml per g of body weight. The different doses were either given as a single injection on day 1 or as triple injections on days 1, 3 and 5. […] The untreated, tumor-bearing control animals only received injections of the DMSO/saline mixture (0.02 ml/g). Every day occuring deaths were noted. Deaths within 8 days after tumor transplantation were defined as toxic deaths due to substance toxicity. In the case of ascitic sarcoma 180, the parameters evaluated were the values of mean survival time (MST) and of increase in life span (ILS); the latter was calculated by relating the mean survival time of a treated group to that of the corresponding control group expressed as a percentage and by subtracting 100%. The key date for the evaluation of the experiment and for determining the number of surviving (cured) animals was day 80. In the case of solid sarcoma 180, the tumors were removed on day 9 after transplantation and weighted to an accuracy of ±1 mg. From tumor weights of treated and control animals, the T/C ratios were calculated as follows: [formula]

Colon 38 Carcinoma = assay: Activity against Colon 38 Carcinoma; assay type: in vivo, female B6 D2 F1 mice; details: day 15
Procedure: as §1, §2, §3, §4, §5

Ehrlich ascites tumor = assay: Activity against Ehrlich Ascites Tumor; assay type: in vivo, Female CF1 mice; details: single i.p. dose, 24 h after tumor inoculation
Procedure: Female CF1 mice are each given about 6×10^6 Ehrlich ascites tumor cells by means of intraperitoneal injection and, 24 hours later, a single intraperitoneal dose of substance dose range of 20 to 500 mg/kg) in physiological saline solution (0.4 ml). In each case 5 to 10 animals are tested per dose. If appropriate, the preparation can be buffered to a pH of 4 to 7, for example with sodium bicarbonate or tris-(hydroxymethyl)-aminomethane, in order to avoid local irritation at the injection site. A group of untreated control animals which were injected intraperitoneally with 0.4 ml of physiological saline solution without administration of the substance is also run for each test series.
The tumor development in the individual dose ranges is evaluated by means of the weight course and survival time. The dose-dependent number of tumor deaths, toxicity deaths and surviving, and the associated percentage increase in the average survival time are determined for each substance.

ascitic Sarcoma 180 = assay: Activity against ascitic Sarcoma 180; assay type: in vivo, female NMRI mice; details: for Survivors/Animals Treated: day 80; for MST (mean survival time): mean (range)
Source text: Each animal obtained about 10^7 tumor cells.
Every day occuring deaths were noted.

Mammary Carcinoma = assay: Activity against heterotransplanted human mammary carcinoma; assay type: in vivo, human tumor xenograft tumor xenograft tumor xenograft; details: day 23
Procedure: (§6) The same testing procedure as in the tests with B16 melanoma and colon 38 carcinoma was employed. The test compounds were applied in equivalent and equitoxic doses, subdivided into five injections. The first injection was administered on day 8 (mammary carcinoma), day 10 (adenocarcinoma of rectum and lung) and day 26 (small cell lung carcinoma) of the tumor transplantation. The T/C values were determined 3 days after the last substance injection, i.e., on day 23 (mammary carcinoma), day 25 (adenocarcinoma of rectum and lung) and day 41 (small cell lung carcinoma).

[1] = system: Lung Small Cell Carcinoma; assay: Activity against heterotransplanted human small cell lung carcinoma; assay type: in vivo; details: day 41
Procedure: as §6

Lung Adenocarcinoma = assay: Activity against heterotransplanted human lung adenocarcinoma; assay type: in vivo; details: day 25
Procedure: as §6

Rectum Adenocarcinoma = assay: Activity against heterotransplanted human rectum adenocarcinoma; assay type: in vivo; details: day 25
Procedure: as §6

Cl.Cl.Nc1ccc([S][Ti]([S]c2ccc(N)cc2)([CH]2C=CC=C2)[CH]2C=CC=C2)cc1 [Compound 1, Bis(p-aminothiophenolato)bis(.eta.^5 -cyclopentadienyl)titanium(IV)-dihydrochloride]
T/C (B16 Melanoma; 1 × 100 mg/kg i.p.): 80%
T/C (B16 Melanoma; 3 × 60 mg/kg i.p.): 36%
T/C (solid Sarcoma 180; 1 × 60 mg/kg): 109%
Tumor Weight (solid Sarcoma 180; 1 × 60 mg/kg): 1,30 ± 0,30 g
T/C (solid Sarcoma 180; 1 × 100 mg/kg): 86%
Tumor Weight (solid Sarcoma 180; 1 × 100 mg/kg): 1,03 ± 0,26 g
T/C (solid Sarcoma 180; 3 × 60 mg/kg): 39%
Tumor Weight (solid Sarcoma 180; 3 × 60 mg/kg): 0,47 ± 0,12 g
T/C (Colon 38 Carcinoma; 1 × 100 mg/kg i.p.): 61%
T/C (Colon 38 Carcinoma; 3 × 60 mg/kg i.p.): 38%
Optimal Treating Rate (Ehrlich ascites tumor): 100%
Therapeutic Index (LD50/ED90) (Ehrlich ascites tumor): 4,3
ILS (increase in life span) (ascitic Sarcoma 180; 1 × 60 mg/kg): 15%
ILS (increase in life span) (ascitic Sarcoma 180; 1 × 100 mg/kg): 139%
Survivors/Animals Treated (ascitic Sarcoma 180; 1 × 100 mg/kg): 1/5
MST (mean survival time) (ascitic Sarcoma 180; 1 × 100 mg/kg): 39,4 (19-80) d

Cl.Nc1ccc([S][Ti]([Cl])([CH]2C=CC=C2)[CH]2C=CC=C2)cc1 [Compound 2, p-aminothiophenolato-chloro-bis(.eta.^5 -cyclopentadienyl)titanium(IV)-hydrochloride]
Optimal Treating Rate (Ehrlich ascites tumor): 100%
Therapeutic Index (LD50/ED90) (Ehrlich ascites tumor): 4,4

O=C(O)C=CC(=O)[O][Ti+2][O]C(=O)C=CC(=O)O.c1cc[cH-]c1.c1cc[cH-]c1 [Compound 3, Bis(hydrogenmaleinato)bis(.eta.^5 -cyclopentadienyl)titanium(IV)]
T/C (B16 Melanoma; 1 × 120 mg/kg i.p.): 89%
T/C (B16 Melanoma; 3 × 100 mg/kg i.p.): 50%
T/C (solid Sarcoma 180; 1 × 80 mg/kg): 95%
Tumor Weight (solid Sarcoma 180; 1 × 80 mg/kg): 1,13 ± 0,18 g
T/C (solid Sarcoma 180; 1 × 120 mg/kg): 73%
Tumor Weight (solid Sarcoma 180; 1 × 120 mg/kg): 0,87 ± 0,41 g
T/C (solid Sarcoma 180; 3 × 60 mg/kg): 76%
Tumor Weight (solid Sarcoma 180; 3 × 60 mg/kg): 0,91 ± 0,25 g
T/C (solid Sarcoma 180; 3 × 100 mg/kg): 53%
Tumor Weight (solid Sarcoma 180; 3 × 100 mg/kg): 0,63 ± 0,14 g
T/C (based on mean relative volume of tumor) (Mammary Carcinoma; 5 × 30 mg/kg): 40%
T/C (Colon 38 Carcinoma; 1 × 120 mg/kg i.p.): 72%
T/C (Colon 38 Carcinoma; 3 × 100 mg/kg i.p.): 50%
T/C (based on mean relative volume of tumor) ([1]; 5 × 30 mg/kg): 65%
Optimal Treating Rate (Ehrlich ascites tumor): 100%
Therapeutic Index (LD50/ED90) (Ehrlich ascites tumor): 3,8
ILS (increase in life span) (ascitic Sarcoma 180; 1 × 80 mg/kg): 95%
Survivors/Animals Treated (ascitic Sarcoma 180; 1 × 80 mg/kg): 1/5
MST (mean survival time) (ascitic Sarcoma 180; 1 × 80 mg/kg): 32,2 (15-80) d
ILS (increase in life span) (ascitic Sarcoma 180; 1 × 120 mg/kg): 125%
Survivors/Animals Treated (ascitic Sarcoma 180; 1 × 120 mg/kg): 1/5
MST (mean survival time) (ascitic Sarcoma 180; 1 × 120 mg/kg): 37,2 (21-80) d
T/C (based on mean relative volume of tumor) (Lung Adenocarcinoma; 5 × 30 mg/kg): 35%
T/C (based on mean relative volume of tumor) (Rectum Adenocarcinoma; 5 × 30 mg/kg): 89%

O=C([O][Ti+2][O]C(=O)C(Cl)(Cl)Cl)C(Cl)(Cl)Cl.c1cc[cH-]c1.c1cc[cH-]c1 [Compound 4, Bis(trichloroacetato)bis(.eta.^5 -cyclopentadienyl)titanium(IV)]
T/C (B16 Melanoma; 1 × 320 mg/kg i.p.): 85%
T/C (B16 Melanoma; 3 × 300 mg/kg i.p.): 41%
T/C (solid Sarcoma 180; 1 × 220 mg/kg): 96%
Tumor Weight (solid Sarcoma 180; 1 × 220 mg/kg): 1,14 ± 0,26 g
T/C (solid Sarcoma 180; 1 × 320 mg/kg): 67%
Tumor Weight (solid Sarcoma 180; 1 × 320 mg/kg): 0,79 ± 0,28 g
T/C (solid Sarcoma 180; 3 × 200 mg/kg): 106%
Tumor Weight (solid Sarcoma 180; 3 × 200 mg/kg): 1,26 ± 0,30 g
Toxicity Deaths/Animals Treated (solid Sarcoma 180; 3 × 300 mg/kg): 1/5
T/C (solid Sarcoma 180; 3 × 300 mg/kg): 37%
Tumor Weight (solid Sarcoma 180; 3 × 300 mg/kg): 0,44 ± 0,14 g
T/C (Colon 38 Carcinoma; 1 × 320 mg/kg i.p.): 48%
Optimal Treating Rate (Ehrlich ascites tumor): 100%
Therapeutic Index (LD50/ED90) (Ehrlich ascites tumor): 5,5
ILS (increase in life span) (ascitic Sarcoma 180; 1 × 220 mg/kg): 4%
MST (mean survival time) (ascitic Sarcoma 180; 1 × 220 mg/kg): 17,2 (15-20) d
ILS (increase in life span) (ascitic Sarcoma 180; 1 × 320 mg/kg): 96%
Survivors/Animals Treated (ascitic Sarcoma 180; 1 × 320 mg/kg): 1/5
MST (mean survival time) (ascitic Sarcoma 180; 1 × 320 mg/kg): 32,4 (18-80) d

Titanocene dibromide [reference compound]
T/C (B16 Melanoma; 1 × 60 mg/kg i.p.): 42%
T/C (B16 Melanoma; 3 × 50 mg/kg i.p.): 48%
T/C (B16 Melanoma; 3 × 60 mg/kg i.p.): 44%
T/C (solid Sarcoma 180; 1 × 50 mg/kg): 108%
Tumor Weight (solid Sarcoma 180; 1 × 50 mg/kg): 1,27 ± 0,37 g
T/C (solid Sarcoma 180; 1 × 60 mg/kg): 94%
Tumor Weight (solid Sarcoma 180; 1 × 60 mg/kg): 1,21 ± 0,37 g
T/C (solid Sarcoma 180; 3 × 50 mg/kg): 53%
Tumor Weight (solid Sarcoma 180; 3 × 50 mg/kg): 0,69 ± 0,17 g
Toxicity Deaths/Animals Treated (solid Sarcoma 180; 3 × 60 mg/kg): 1/5
T/C (solid Sarcoma 180; 3 × 60 mg/kg): 37%
Tumor Weight (solid Sarcoma 180; 3 × 60 mg/kg): 0,48 ± 0,10 g
T/C (based on mean relative volume of tumor) (Mammary Carcinoma; 5 × 20 mg/kg): 44%
T/C (Colon 38 Carcinoma; 1 × 60 mg/kg i.p.): 36%
T/C (Colon 38 Carcinoma; 3 × 50 mg/kg i.p.): 51%
T/C (based on mean relative volume of tumor) ([1]; 5 × 20 mg/kg): 96%
ILS (increase in life span) (ascitic Sarcoma 180; 1 × 50 mg/kg, group of 5): 61%
MST (mean survival time) (ascitic Sarcoma 180; 1 × 50 mg/kg, group of 5): 28,4 (22-34) d
ILS (increase in life span) (ascitic Sarcoma 180; 1 × 60 mg/kg): 128%
Survivors/Animals Treated (ascitic Sarcoma 180; 1 × 60 mg/kg): 1/5
MST (mean survival time) (ascitic Sarcoma 180; 1 × 60 mg/kg): 40,2 (20-80) d
T/C (based on mean relative volume of tumor) (Lung Adenocarcinoma; 5 × 20 mg/kg): 53%
T/C (based on mean relative volume of tumor) (Rectum Adenocarcinoma; 5 × 20 mg/kg): 48%

titanocene dichloride [reference compound]
T/C (B16 Melanoma; 1 × 50 mg/kg i.p.): 61%
T/C (B16 Melanoma; 3 × 40 mg/kg i.p.): 69%
T/C (B16 Melanoma; 3 × 50 mg/kg i.p.): 37%
T/C (solid Sarcoma 180; 1 × 40 mg/kg): 111%
Tumor Weight (solid Sarcoma 180; 1 × 40 mg/kg): 1,31 ± 0,24 g
T/C (solid Sarcoma 180; 1 × 50 mg/kg): 66%
Tumor Weight (solid Sarcoma 180; 1 × 50 mg/kg): 0,78 ± 0,34 g
T/C (solid Sarcoma 180; 3 × 40 mg/kg): 58%
Tumor Weight (solid Sarcoma 180; 3 × 40 mg/kg): 0,75 ± 0,32 g
T/C (solid Sarcoma 180; 3 × 50 mg/kg): 23%
Tumor Weight (solid Sarcoma 180; 3 × 50 mg/kg): 0,29 ± 0,14 g
T/C (based on mean relative volume of tumor) (Mammary Carcinoma; 5 × 15 mg/kg): 49%
T/C (Colon 38 Carcinoma; 1 × 50 mg/kg i.p.): 41%
T/C (Colon 38 Carcinoma; 3 × 40 mg/kg i.p.): 28%
T/C (based on mean relative volume of tumor) ([1]; 5 × 15 mg/kg): 110%
Optimal Treating Rate (Ehrlich ascites tumor): 90-100%
Therapeutic Index (LD50/ED90) (Ehrlich ascites tumor): 3,3
ILS (increase in life span) (ascitic Sarcoma 180; 1 × 40 mg/kg, group of 5): 81%
Survivors/Animals Treated (ascitic Sarcoma 180; 1 × 40 mg/kg, group of 5): 1/5
MST (mean survival time) (ascitic Sarcoma 180; 1 × 40 mg/kg, group of 5): 32,0 (18-80) d
ILS (increase in life span) (ascitic Sarcoma 180; 1 × 40 mg/kg, group of 6): 32%
MST (mean survival time) (ascitic Sarcoma 180; 1 × 40 mg/kg, group of 6): 27,3 (20-49) d
ILS (increase in life span) (ascitic Sarcoma 180; 1 × 50 mg/kg, group of 5): 184%
Survivors/Animals Treated (ascitic Sarcoma 180; 1 × 50 mg/kg, group of 5): 2/5
MST (mean survival time) (ascitic Sarcoma 180; 1 × 50 mg/kg, group of 5): 50,0 (25-80) d
ILS (increase in life span) (ascitic Sarcoma 180; 1 × 50 mg/kg, group of 6): 161%
Survivors/Animals Treated (ascitic Sarcoma 180; 1 × 50 mg/kg, group of 6): 3/6
MST (mean survival time) (ascitic Sarcoma 180; 1 × 50 mg/kg, group of 6): 54,0 (25-80) d
T/C (based on mean relative volume of tumor) (Lung Adenocarcinoma; 5 × 15 mg/kg): 34%
T/C (based on mean relative volume of tumor) (Rectum Adenocarcinoma; 5 × 15 mg/kg): 38%
